The values below are quoted from earlier work in patent US10485768B2, “Treatment for glioblastoma” (SignPath Pharma Inc., priority 2015, dated 2019).

Series [1] deals with C6 implant rat glioma. To be noted: C6 implant rat glioma model.
Series [2] concerns human glioma U87 cells. The settings on record: U87 cells xenografted into athymic mice.
The test system of series [3] is human primary and recurrent GBM cell lines.

`COc1cc(/C=C/C(=O)CC(=O)/C=C/c2ccc(O)c(OC)c2)ccc1O` [Curcumin, diferuloylmethane]: the brain tumor volume result in series [1] is given as “reduction in brain tumor volume”. For the same compound, the “growth of xenografted tumor cells” value in series [2] is reported as “suppress growth”. Further, in series [3], the cell growth entry is on record as “reduced cell growth”.
